Publication PMC7070709, “Design, Synthesis, and In Vitro Evaluation of Hydroxybenzimidazole-Donepezil Analogues as Multitarget-Directed Ligands for the Treatment of Alzheimer’s Disease” (Molecules, 2020)
Entries after “also recorded” stand apart in the source; their conditions may differ. Where two headings read alike, the source gives them in different places.

Assays:
[1] = biological target: T1, AChE (type VI-S, from electric eel) (Electrophorus electricus, UniProt O42275); conditions: read-out: TcAChE Inhibition IC50; cited from earlier work
T1 construct: purchased type VI-S
T1 sequence (O42275 24-633): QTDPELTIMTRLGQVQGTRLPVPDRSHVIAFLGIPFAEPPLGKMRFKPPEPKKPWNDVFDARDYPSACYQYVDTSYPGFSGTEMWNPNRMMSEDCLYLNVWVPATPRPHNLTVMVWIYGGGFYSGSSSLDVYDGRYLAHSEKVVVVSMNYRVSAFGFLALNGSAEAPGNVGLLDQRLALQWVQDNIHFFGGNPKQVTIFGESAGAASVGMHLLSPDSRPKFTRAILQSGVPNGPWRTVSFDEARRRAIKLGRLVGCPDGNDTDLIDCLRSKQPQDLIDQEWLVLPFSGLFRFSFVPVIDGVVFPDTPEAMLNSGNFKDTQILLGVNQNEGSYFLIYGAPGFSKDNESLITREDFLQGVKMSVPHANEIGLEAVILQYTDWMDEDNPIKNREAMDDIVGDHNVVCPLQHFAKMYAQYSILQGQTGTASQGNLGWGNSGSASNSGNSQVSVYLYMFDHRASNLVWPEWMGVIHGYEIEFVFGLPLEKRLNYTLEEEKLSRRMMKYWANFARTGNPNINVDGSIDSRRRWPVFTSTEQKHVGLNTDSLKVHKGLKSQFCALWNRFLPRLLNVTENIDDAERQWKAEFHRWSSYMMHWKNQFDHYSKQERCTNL

Aβ1–42 [2] = biological target: T2, Aβ1–42 (Homo sapiens, UniProt P05067); parameters: method as in PMID 32171933; conditions: cited from earlier work
T2 construct: Aβ1–42 (40 μM) was incubated at 37 °C, for 24 h with or without Cu(II) (40 μM)
T2 sequence (P05067 672-713): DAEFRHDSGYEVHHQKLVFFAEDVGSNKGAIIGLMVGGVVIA

[3] = pH 7.4, CL/CM = 10, CM = 10^−6 M; cited from earlier work
Aβ1–42 with Cu(II) [4] = biological target: T3, Aβ1–42 with Cu(II) (Homo sapiens, UniProt P05067); parameters: method as in PMID 32171933; conditions: copper 40 µM, cited from earlier work
T3 construct: Aβ1–42 (40 μM) was incubated at 37 °C, for 24 h with or without Cu(II) (40 μM)
T3 sequence (P05067 672-713): as above

[5] = Cu(II) chelation by potentiometry; type: physicochemical; conditions: pH 7.4; read-out: conditional dissociation constant (K´d) for the copper complex
Source text: The metal chelating ability of hybrids 7 and 12, due to the BIM bidentate unity with (N,O) coordination mode, was studied by potentiometry. Figure 3A,B show a change in the deprotonation profile of the ligand titration curves due to the presence of the metal ions. In fact, the curves for the Cu(II)/L systems lie well below that of the ligand, while for the Zn(II)/L systems stay under for a > −1 (compound 7) or a > 0 (compound 12), thus supporting the formation of 1:1 and 1:2 M/L ratio complexes with the deprotonated and mono-protonated forms of the ligand and with relative metal dependent stability order (Cu > Zn). Table 1 contains the equilibrium models obtained from the fitting analysis of the potentiometric curves by program Hyperquad. In these equilibrium models, which the coordination core of the compounds integrates the bidentate (N,O) BIM moiety, MHL and MH2L2 correspond to species with the ligand containing one protonated nitrogen atom at the piperazine moiety, ML and ML2 correspond to complexes involving the completely deprotonated form of the ligand while MH-1L2 are mixed ligand-hydroxo metal complexes.
Solutions: the aqueous copper (CuCl2, 0.015 M) and zinc (ZnCl2, 0.0156 M) stock solutions for potentiometric equilibrium studies were prepared from 1000 ppm standards (Titrisol) and their metal content was evaluated by atomic absorption. The titrant solution (0.1 M KOH) was obtained from a carbonate-free commercial concentrate (Titrisol) and standardized by potentiometric titration with potassium hydrogen phthalate. The titrant solution was discarded whenever the percentage of carbonate (Gran’s method) was about 0.5% of the total amount of base.
Measurements: compounds 7 and 12 were titrated in 50% (w/w) DMSO/H2O medium, at T = 25.0 ± 0.1 °C and ionic strength (I) 0.1 M KCl, using 0.1 M KOH as titrant. Both glass and Ag/AgCl reference electrodes were previously conditioned in DMSO/H2O mixtures with increasing amounts of DMSO and the response of the glass electrode was controlled by strong acid–strong base (HCl/KOH) calibrations with the determination of the Nernst parameters by Gran’s method. […] All titrations were performed in duplicate and under the stated experimental conditions the pKw value (13.6) was determined and subsequently used in the computations. The stepwise protonation constant of the ligand, Ki = [HiL]/([Hi–1L][H]), and the overall metal–complex stability constants, βMmHhLl = [MmHhLl]/([M]^m[H]^h[L]^l), were calculated by fitting the potentiometric titration data with Hyperquad 2008 [26]. The metal hydrolysis constants were determined under the defined experimental conditions (I = 0.1 M KCl, 50% w/w DMSO/H2O, T = 25.0 ± 0.1 °C) and the following values of stability constants were included in the fitting of experimental data towards the equilibrium models related to the Cu^2+/L and Zn^2+/L systems: log βCu2H−2 = −9.99; log βZnH−2 = −14.79, log βZnH−3 = −23.48. Species distribution curves were plotted with the Hyss program.

[6] = 50% w/w DMSO/water, I = 0.1 M KCl, 25.0 °C; cited from earlier work
[7] = pH 7.4, CL/CM = 10, CM = 10^−6 M; cited from earlier work; remark: listed apart in the source
Aβ1–42 with Cu(II) [8] = biological target: T3, Aβ1–42 with Cu(II); test: Inhibition of Cu-induced Aβ1–42 aggregation (thioflavin T fluorescence); type: biochemical; conditions: inhibitor 40 µM, copper 40 µM, Aβ1–42 40 μM, 24 h, 37 °C
Experimental: (§1) The anti-amyloidogenic capacity of the compounds was also evaluated in vitro, in the absence and presence of Cu(II), based on the measurement of the fluorescence emission of Thioflavin T (ThT), a stain known by its Aβ fibril binding capacity. This binding interaction can be analyzed by fluorimetry, since the presence of ThT-fibrils increases the absorbance and the emission of the ThT dye, and it also induces red shifts on the absorbance (from 385 to 446 nm) and emission peaks (from 445 to 485 nm). All the measurements were performed after incubation (24 h, 37 °C) of the self-mediated and Cu^2+-induced Aβ aggregates in the presence/absence of the compounds under evaluation.
(§2) Herein, due to solubility problems of some compounds in the phosphate buffer (0.215 M, pH 8.0) of the working medium, the assays were carried out in the presence of 40 μM concentration of inhibitor and 20 μM in the case of compound 4, instead of 80 μM as previously reported. […] The activity dependence on ligand structural features may be mainly explained by the different ability for intercalation into the fibrils, as already assumed for other inhibitors. […] The data obtained for compounds 6 and 7 indicate that the presence of R1 = F, -NO2 substituents in the BIM have some small positive effect on the inhibition of Aβ aggregation.
(§3) The Aβ peptide was treated with 1,1,1,3,3,3-hexafluoropropan-2-ol (HFIP) and dissolved in a CH3CN/Na2CO3 (300 μM)/NaOH (250 μM) (48.3:48.3:4.3, v/v/v) mixture in order to have a stable stock solution, avoiding self-aggregation of Aβ1–42. Then, the prepared 500 μM solution was diluted at 40 μM in phosphate buffer (0.215 M, pH 8.0).
(§4) The solutions of the tested compounds were prepared in MeOH (1 mg/mL), being further diluted in phosphate buffer to a concentration of 480 μM. For copper-induced aggregation studies, a solution of CuCl2 240 μM was prepared from a stock standard solution (0.015 M). To perform the assays for the Aβ1–42 aggregation inhibition, a reported method, based on the fluorescence emission of thioflavin T (ThT), was followed. Aβ1–42 (40 μM) was incubated at 37 °C, for 24 h with or without Cu(II) (40 μM) in a phosphate buffer in presence or absence of the single ligand (40 μM and 20 μM for compound 4). Then, the samples were added to a 96-well plate with […] of 5 μM ThT in 50 mM glycine-NaOH (pH 8.5) buffer. Blank samples were prepared without the peptide for each concentration. The ThT fluorescence was measured at 446 nm (excitation) and 485 nm (emission). The inhibition percentage of aggregation was calculated by Equation (2), in which IFi and IF0 corresponded to the fluorescence intensities, in the presence and in the absence of the tested compound, subtracted of the fluorescence intensities due to the respective blanks.
(§5) The reported values were obtained as the mean ± SEM of duplicate of three different experiments.

Aβ1–42 [9] = biological target: T2, Aβ1–42; test: Inhibition of self-mediated Aβ1–42 aggregation (thioflavin T fluorescence); type: biochemical; conditions: inhibitor 40 µM, Aβ1–42 40 μM, 24 h, 37 °C; read-out: Aβ1–42 Aggregation Inhibition, Self-Induced
Experimental: as §1, §2, §3, §4, §5

[10] = biological target: T1, AChE (type VI-S, from electric eel); test: AChE inhibition, adaptation of Ellman's method; type: biochemical; conditions: means of three independent experiments ± SD, read-out: TcAChE Inhibition IC50
Experimental: The inhibition of AChE by the DNP-BIM hybrids herein studied was assayed by using a variation of Ellman´s test and the IC50 values obtained are included in Table 2. […]. An adaptation of the Ellman´s method, previously described, was used to measure the acetylcholinesterase inhibitory activity. The assay solution contained 374 µL of 4-(2-hydroxyethyl)-1-piperazineethanesulfonic acid (HEPES) buffer (50 mM, pH 8.0), 476 µL of 5,5’-dithiobis-(2-nitrobenzoic acid) (DTNB, 3 mM), a variable volume (10–50 µL) of the stock solution of each compound in methanol (1 mg/mL), 25 µL of AChE (type VI-S, from electric eel) stock solution, and the necessary amount of methanol to obtain 0.925 mL of sample mixture in a 1 mL cuvette. The samples were incubated for 15 min and then 75 µL of acetylthiocholine iodide (AChI) solution (16 mM) was added. The reaction was monitored for 5 min at 405 nm. Assays were run with a blank containing all the components except AChE, which was replaced by HEPES buffer. The rates of the reaction were calculated as well as the enzyme activity. A control reaction was carried out using methanol as a sample solution and it was considered as 100% activity.
The inhibition curves were obtained by plotting the percentage of enzymatic inhibition versus inhibitor concentration and a calibration curve was got from which the linear regression parameters were obtained.

SH-SY5Y cells = test: Neuroprotection from Aβ42-induced toxicity (MTT); type: cell-based, human; conditions: compound 2.5 µM, 1 h pre-incubation plus 24 h co-incubation with Aβ42 1 µM
Experimental: Extracellular formation of senile plaques of aggregated Aβ along with the production of reactive oxygen species (ROS) are processes involved in the neurodegeneration that characterize AD [42]. […] Additionally, ROS production is also one of the hallmarks associated with AD pathogenesis.
SH-SY5Y human neuroblastoma cell line (ATCC-CRL-2266) was cultured in Dulbecco’s Modified Eagle Medium (DMEM) (Gibco-Invitrogen, Life Technologies Ltd., Liverpool, UK) supplemented with 10% of heat inactivated fetal bovine serum, 50 U/mL penicillin, and 50 μg/mL streptomycin, at 37 °C in 5% CO2. For the cell viability experiments, cells were plated with a density of 0.12 × 10^6 cells/mL. All the tested compounds (from 7 to 12) were dissolved in DMSO and aliquots were stored at −20 °C with a stock concentration of 25 mM. To choose the highest non-toxic concentration of the compounds, a concentration screening was performed (from 2.5 μM to 10 μM). For the experiments, all the compounds were added to the medium at a final concentration of 2.5 μM. […] Cells were pre-incubated for 1 h with the compounds and then incubated with Aβ1–42 or with Fe/Asc for an additional 24 h. […]
Cell viability was determined using the colorimetric 3-(4,5-dimethylthiazol-2-yl)-2,5-diphenyltetrazolium bromide (MTT) assay. […] The absorbance of the plate was measured at 570 nm. […]

O=C(NCC1CCN(Cc2ccccc2)CC1)c1ccc2nc(-c3ccccc3O)[nH]c2c1 [Compound 1]
IC50 [1]: 4.2 ± 0.8 µM | Aβ1–42 Aggregation Inhibition, Self-Induced (Aβ1–42 [2]; footnote e): 48.8 ^e % | pZn (pM = −log[M]) [3]: 6.3 | Aβ1–42 Aggregation Inhibition, Cu-Induced (Aβ1–42 with Cu(II) [4]; footnote e): 69.0 ^e % | Kd [5]: 0.034 µM | log K1, stepwise protonation constant (011) [6]: 8.671(1) | log K2, stepwise protonation constant (021) [6]: 7.39(1) | log K3, stepwise protonation constant (031) [6]: 3.21(1)

O=C(NCCN1CCN(Cc2ccccc2)CC1)c1ccc2nc(-c3ccccc3O)[nH]c2c1 [Compound 2]
IC50 [1]: 6.9 ± 0.6 µM | pCu (pM = −log[M]) [7]: 10.7 | Aβ1–42 Aggregation Inhibition, Self-Induced (Aβ1–42 [2]; footnote d, Cinhibitor = 80 µM): 25.3 ^d % | pZn (pM = −log[M]) [3]: 6.3 | Aβ1–42 Aggregation Inhibition, Cu-Induced (Aβ1–42 with Cu(II) [4]; footnote d, Cinhibitor = 80 µM): 37.7 ^d % | Kd [5]: 0.024 µM | log K1, stepwise protonation constant (011) [6]: 9.04(3) | log K2, stepwise protonation constant (021) [6]: 6.76(6) | log K3, stepwise protonation constant (031) [6]: 3.37(7)

COc1ccc(-c2nc3ccc(C(=O)NCCN4CCN(Cc5ccccc5)CC4)cc3[nH]2)c(O)c1 [Compound 9, N-(2-(4-Benzylpiperazin-1-yl)ethyl)-2-(4-metoxy-2-hydroxyphenyl)-1H-benzo[d]imidazole-5-carboxamide]
inhibition at 40 µM (Aβ1–42 with Cu(II) [8]): 66% | inhibition at 40 µM (Aβ1–42 [9]): 43.7% | IC50 [10]: 1.87 ± 0.8 µM | neuroprotective effect against Aβ42-induced cell toxicity (cell viability, MTT) (SH-SY5Y cells): remarkable reduction of Aβ-induced cell toxicity; also recorded: prevented Aβ-induced cell toxicity

O=C(NCCN1CCN(Cc2ccccc2F)CC1)c1ccc2nc(-c3ccccc3O)[nH]c2c1 [Compound 10, N-(2-(4-(2-Fluorobenzyl)piperazin-1-yl)ethyl)-2-(2-hydroxyphenyl)-1H-benzo[d]imidazole-6-carboxamide]
inhibition at 40 µM (Aβ1–42 with Cu(II) [8]): 75.8% | inhibition at 40 µM (Aβ1–42 [9]): 39.1% | IC50 [10]: 4.32 ± 0.03 µM | neuroprotective effect against Aβ42-induced cell toxicity (cell viability, MTT) (SH-SY5Y cells): remarkable reduction of Aβ-induced cell toxicity; also recorded: prevented Aβ-induced cell toxicity
